Measured values: a melting point compilation (Tetko et al.)

settings: a range is the spread between reports

Row | Compound | melting point [°C]
1 | OCCCCCCCCCCO | 72 to 74
2 | COC(=O)NN | 72 to 73
3 | CCCCCCCCCCCCCCCCCCCC | 36 to 37
4 | CC(C)(C)CC(=O)O | 6 to 6.5
5 | CC#CCCC | -90 to -89.6
6 | C1CCCCCCCCCCC1 | 59 to 61
7 | OC[C@@H](O)[C@@H](O)[C@@H](O)CO | 102 to 103
8 | COC=O | -100 to -99
9 | Ic1ccccc1 | -31.3 to -31
10 | CC(C)C1CC1 | -113
11 | CCC1=CCCC1 | -118
12 | Nc1ccc([N+](=O)[O-])cc1C(=O)c1ccccc1 | 163 to 167
13 | CC1CO1 (stereo not drawn) | -112
14 | COc1cc(Cl)ccc1O | 16.5 to 17
15 | CCCCCC(=O)OC(=O)CCCCC | -41 to -40
16 | CC(C)(C)OC(=O)NCC(=O)O | 87.5 to 89
17 | C[C@H](O)[C@@H](C)O | 33 to 34.5
18 | c1ccc(-c2ccc(-c3ccc(-c4ccccc4)cc3)cc2)cc1 | 317 to 320
19 | CCCC(=O)NN | 44 to 45.5
20 | CCC1=CCCCC1 | -110
21 | Oc1ccc(I)cc1 | 92 to 94
22 | [O-][S+](Cc1ccccc1)Cc1ccccc1 | 133 to 134
23 | O=S(Cl)Cl | -105 to -104
24 | O=S(=O)(Cl)c1ccccc1 | 14.5 to 15
25 | CS(C)(=O)=O | 109 to 110
26 | CC(C)(C)c1ccccc1O | -7 to -6.8
27 | Cc1ccc(N)cc1C | 50 to 51
28 | CNC(=O)Oc1ccccc1OC(C)C | 90 to 91.5

Row | Compound | melting point [°C]
29 | CCCCCCCCCCCCCCCC | 18 to 18.1
30 | O=C/C=C/c1ccccc1 | -8 to -7
31 | O=Cc1ccc(C(F)(F)F)cc1 | 1.5 to 2
32 | Nc1ccccc1 | -6.3 to -6
33 | C=CCCCCCCCCCO | -3 to -2
34 | CC1(O)CCCCC1 | 25 to 26
35 | CC(CCC(=O)O)CC(=O)O (stereo not drawn) | 100 to 101
36 | CCOC(=O)CC(C)C | -99.3 to -99
37 | O/N=C\c1ccccc1 | 35 to 36.5
38 | CC(C)(C)N=C=S | 10 to 10.5
39 | CC(=O)CCCC(=O)O | 12 to 13.5
40 | c1ccc(P(CCCP(c2ccccc2)c2ccccc2)c2ccccc2)cc1 | 60 to 61
41 | O=C(O)COCC(=O)O | 143 to 148
42 | OCc1ccccc1 | -15.2 to -15
43 | CCCCCCCCCC(C)=O | 12 to 15
44 | CC1CNC(C)CN1 (stereo not drawn) | 114 to 118
45 | COC(=O)C(C)C | -85 to -84.7
46 | Cc1cc(Cl)ccc1O | 47 to 51
47 | Cc1ccc(Cl)cc1[N+](=O)[O-] | 36 to 39
48 | SC(c1ccccc1)(c1ccccc1)c1ccccc1 | 105 to 106
49 | CCC(=O)c1ccccc1 | 18 to 19
50 | CCCCC(=O)O | -34 to -33.7
51 | Cc1ccc(S(=O)(=O)F)cc1 | 41 to 41.5
52 | O=C(O)c1ccco1 | 130 to 134
53 | CC(C)OC(C)C | -86.8 to -86
54 | Oc1ccc(C(c2ccc(O)cc2)(C(F)(F)F)C(F)(F)F)cc1 | 160 to 162
55 | [O-][N+](=Nc1ccccc1)c1ccccc1 | 35 to 36

Second part, the compound after the results:

Row | melting point [°C] | Compound
56 | -83 to -82.7 | CCc1ccccc1Cl
57 | 163 to 166 | COc1ccc2nc(N)sc2c1
58 | 36.5 to 39 | CC(C)(C)c1cccc(C(C)(C)C)c1O
59 | 128 to 129 | CCCCNC(=O)NS(=O)(=O)c1ccc(C)cc1
60 | 188 to 189 | Nc1ncc2ncn(COCCO)c2n1
61 | 112 to 115 | CCOc1ccc2ccccc2c1C=O
62 | 74 to 78.5 | Nc1c(Cl)cc(Cl)cc1Cl
63 | 100 to 103 | Nc1ccc(Cl)c([N+](=O)[O-])c1
64 | 45.8 to 47 | Nc1ccccc1Oc1ccccc1
65 | 15 to 17 | CC(C)(C)c1ccc(N)cc1
66 | 220 | Nc1nc(Cl)cc(Cl)n1
67 | -1 to 2 | Cc1cc(C)c(Br)c(C)c1
68 | -86.3 to -82 | C=Cc1cccc(C)c1
69 | 79 to 81 | Cc1cc(N)ccc1Br
70 | 36 to 36.3 | O=C(Cl)c1cc(C(=O)Cl)cc(C(=O)Cl)c1
71 | 66 to 67 | CC(C)(C)C1=CC(=O)C=C(C(C)(C)C)C1=O
72 | 60.9 to 61 | O=[N+]([O-])c1cccc(S(=O)(=O)Cl)c1
73 | 21 to 23 | C/C=C/c1ccc(OC)cc1
74 | 41 to 45 | CC(C)(C)c1cccc(O)c1
75 | 132 to 135 | CC1(C)C(=O)N(Cl)C(=O)N1Cl
76 | 67 to 68.5 | O=C(c1ccccc1)C(Cl)c1ccccc1 (stereo not drawn)
77 | 90 to 91 | CC(=O)OC(OC(C)=O)c1ccc([N+](=O)[O-])o1
78 | 112 | Nc1ccc(Br)cc1[N+](=O)[O-]
79 | 205 to 208 | COc1cc(C(=O)O)cc(OC)c1O
80 | 179 to 181 | Sc1nc2ccccc2s1
81 | 25 to 28.5 | Cc1ccc(Br)cc1
82 | 74 to 75 | Cn1c(=O)ccc2ccccc21
83 | 65 to 66 | Clc1cncc(Cl)c1
